Entries after “also recorded” stand apart in the source; their conditions may differ. Where two headings read alike, the source gives them in different places.
What was measured:
[1] = Dynamic vapour sorption (DVS) with XRPD of retained solid; format: physicochemical
Method: 10-20 mg of sample was placed into a mesh vapour sorption balance pan and loaded into a DVS-1 dynamic vapour sorption balance by Surface Measurement Systems. The sample was subjected to a ramping profile from 40-90% relative humidity (RH) at 10% increments, maintaining the sample at each step until a stable weight had been achieved (dm/dt 0.004%, minimum step length 30 minutes, maximum step length 500 minutes) at 25° C. After completion of the sorption cycle, the sample was dried using the same procedure to 0% RH and then a second sorption cycle back to 40% RH. Two cycles were performed. The weight change during the sorption/desorption cycles were plotted, allowing for the hygroscopic nature of the sample to be determined. XRPD analysis was then carried out on any solid retained.

[2] = Solvent solubility screen of Compound A (aliquot addition, HPLC of saturated solutions); format: physicochemical; design: key to XRPD: A: Amorphous; P1: Pattern 1; P2: Pattern 2; *Poorly crystalline; + p1: some pattern 1 peaks; details: for XRPD: solid from solubility screen
Method: A known volume aliquot (typically 5 volumes) of solvent was added to approximately 5 mg of Compound A. See Table 14 for the selected solvents for the solvent solubility screen.
Between each addition, the mixture was checked for dissolution and where no dissolution was apparent, the mixture was heated to ca. 40° C. and checked again. This procedure was continued until dissolution was observed or until 100 volumes of solvent had been added.
Where dissolution was not observed, solids were isolated centrifugally and analyzed by XRPD. The saturated solutions were analyzed by HPLC to obtain the solubility.

SMILES: COc1cc(O[C@H]2C(C)(C)[C@H](NC(=O)c3ccc(N4CCC(CN5CCN(c6ccc(C(=O)N[C@H]7CCC(=O)NC7=O)c(F)c6)CC5)CC4)cc3)C2(C)C)ccc1C#N [Compound A, 4-(4-((1-(4-(((1R,3R)-3-(4-cyano-3-methoxyphenoxy)-2,2,4,4-tetramethylcyclobutyl)carbamoyl)phenyl)piperidin-4-yl)methyl)piperazin-1-yl)-N—((S)-2,6-dioxopiperidin-3-yl)-2-fluorobenzamide]
- form by XRPD post DVS [1]: Crystallization was not observed; also recorded: remained amorphous by XRPD
- hygroscopic nature (DVS) ([1]; 25° C.): hygroscopic
- average mass uptake of water (DVS) ([1]; at 90% RH, 25° C.): 4.08 wt. %
- mass uptake of water (DVS), equivalents ([1]; at 90% RH, 25° C.): 1.91 eq.
- solubility ([2]; 1,4-dioxane, organic solvent or mixture, thermodynamic from solid, 1,4-Dioxane, read-out: Approximate Solubility): 100000 µg/mL
- solubility ([2]; 1,4-dioxane, organic solvent or mixture, thermodynamic from solid, 1,4-Dioxane, read-out: Approximate solubility): ~100000 µg/mL
- solubility ([2]; 1,4-dioxane, organic solvent or mixture, thermodynamic from solid, 1,4-dioxane, read-out: solubility): > 100000 µg/mL
- solubility ([2]; 1-butanol, 40 °C, organic solvent or mixture, thermodynamic from solid, 1-Butanol, read-out: Approximate Solubility): 188 µg/mL
- solubility ([2]; 1-propanol, 40 °C, organic solvent or mixture, thermodynamic from solid, 1-Propanol, read-out: Approximate Solubility): 232 µg/mL
- solubility ([2]; 2-Butanone (MEK), 40 °C, organic solvent or mixture, thermodynamic from solid, 2-Butanone (MEK), read-out: Approximate Solubility): 2130 µg/mL
- solubility ([2]; 2-Ethoxyethanol, 40 °C, organic solvent or mixture, thermodynamic from solid, 2-Ethoxyethanol, read-out: Approximate Solubility): 1550 µg/mL
- solubility ([2]; 2-Methyl THF, 40 °C, organic solvent or mixture, thermodynamic from solid, 2-Methyl THF, read-out: Approximate Solubility): 2890 µg/mL
- solubility ([2]; 2-Propanol, 40 °C, organic solvent or mixture, thermodynamic from solid, 2-Propanol, read-out: Approximate Solubility): 205 µg/mL
- solubility ([2]; 2-propanol:water (90:10% v/v), 40 °C, organic solvent or mixture, thermodynamic from solid, 2-Propanol:Water (90:10% v/v), read-out: Approximate Solubility): 186 µg/mL
- solubility ([2]; 3-Methyl-1-butanol, 40 °C, organic solvent or mixture, thermodynamic from solid, 3-Methyl-1-butanol, read-out: Approximate Solubility): 1220 µg/mL
- solubility ([2]; Acetone, 40 °C, organic solvent or mixture, thermodynamic from solid, Acetone, read-out: Approximate Solubility): 2730 µg/mL
- solubility ([2]; Acetonitrile, 40 °C, organic solvent or mixture, thermodynamic from solid, Acetonitrile, read-out: Approximate Solubility): 995 µg/mL
- solubility ([2]; Anisole, organic solvent or mixture, thermodynamic from solid, Anisole, read-out: Approximate Solubility): 25000 µg/mL
- solubility ([2]; Butyl acetate, 40 °C, organic solvent or mixture, thermodynamic from solid, Butyl acetate, read-out: Approximate Solubility): 209 µg/mL
- solubility ([2]; DCM, organic solvent or mixture, thermodynamic from solid, DCM, read-out: Approximate solubility): ~50000 µg/mL
- solubility ([2]; DCM, organic solvent or mixture, thermodynamic from solid, DCM, read-out: solubility): 50000 to 100000 µg/mL
- solubility ([2]; DCM:methanol (50:50% v/v), organic solvent or mixture, thermodynamic from solid, DCM:methanol (50:50% v/v), read-out: solubility): 50000 to 100000 µg/mL
- solubility ([2]; DCM:methanol (75:25% v/v), organic solvent or mixture, thermodynamic from solid, DCM:methanol (75:25% v/v), read-out: solubility): > 100000 µg/mL
- solubility ([2]; DMA, organic solvent or mixture, thermodynamic from solid, DMA, read-out: solubility): > 100000 µg/mL
- solubility ([2]; DMF, organic solvent or mixture, thermodynamic from solid, DMF, read-out: solubility): > 100000 µg/mL
- solubility ([2]; DMSO, organic solvent or mixture, thermodynamic from solid, DMSO, read-out: solubility): > 100000 µg/mL
- solubility ([2]; Dichloromethane, organic solvent or mixture, thermodynamic from solid, Dichloromethane, read-out: Approximate Solubility): 50000 µg/mL
- solubility ([2]; N,N′-dimethylacetamide, organic solvent or mixture, thermodynamic from solid, N,N′-Dimethylacetamide, read-out: Approximate Solubility): 100000 µg/mL
- solubility ([2]; N,N′-dimethylformamide, organic solvent or mixture, thermodynamic from solid, N,N′-Dimethylformamide, read-out: Approximate Solubility): 100000 µg/mL
- solubility ([2]; N-methylpyrrolidone, organic solvent or mixture, thermodynamic from solid, N-Methylpyrrolidone, read-out: Approximate Solubility): 50000 µg/mL
- solubility ([2]; NMP, organic solvent or mixture, thermodynamic from solid, NMP, read-out: solubility): 50000 to 100000 µg/mL
- solubility ([2]; THF, organic solvent or mixture, thermodynamic from solid, THF, read-out: Approximate solubility): ~50000 µg/mL
- solubility ([2]; THF, organic solvent or mixture, thermodynamic from solid, THF, read-out: solubility): 50000 to 100000 µg/mL
- solubility ([2]; THF:water (98:2% v/v), organic solvent or mixture, thermodynamic from solid, THF:water (98:2% v/v), read-out: solubility): 50000 to 100000 µg/mL
- solubility ([2]; acetone:water (90:10% v/v), 40 °C, organic solvent or mixture, thermodynamic from solid, Acetone:Water (90:10% v/v), read-out: Approximate Solubility): 5680 µg/mL
- solubility ([2]; acetonitrile:water (75:25% v/v), 40 °C, organic solvent or mixture, thermodynamic from solid, Acetonitrile:Water (75:25% v/v), read-out: Approximate Solubility): 1050 µg/mL
- solubility ([2]; anisole, organic solvent or mixture, thermodynamic from solid, anisole, read-out: solubility): 25000 to 50000 µg/mL
- solubility ([2]; dichloromethane:methanol (50:50% v/v), organic solvent or mixture, thermodynamic from solid, Dichloromethane:Methanol (50:50% v/v), read-out: Approximate Solubility): 50000 µg/mL
- solubility ([2]; dichloromethane:methanol (50:50% v/v), organic solvent or mixture, thermodynamic from solid, Dichloromethane:Methanol (50:50% v/v), read-out: Approximate solubility): ~50000 µg/mL
- solubility ([2]; dichloromethane:methanol (75:25% v/v), organic solvent or mixture, thermodynamic from solid, Dichloromethane:Methanol (75:25% v/v), read-out: Approximate Solubility): 100000 µg/mL
- solubility ([2]; diethyl ether, 40 °C, organic solvent or mixture, thermodynamic from solid, Diethyl ether, read-out: Approximate Solubility): 2 µg/mL
- solubility ([2]; dimethylsulfoxide, organic solvent or mixture, thermodynamic from solid, Dimethylsulfoxide, read-out: Approximate Solubility): 100000 µg/mL
- solubility ([2]; ethanol, 40 °C, organic solvent or mixture, thermodynamic from solid, Ethanol, read-out: Approximate Solubility): 276 µg/mL
- solubility ([2]; ethanol:water (50:50% v/v), 40 °C, aqueous with cosolvent or surfactant or cyclodextrin, thermodynamic from solid, Ethanol:Water (50:50% v/v), read-out: Approximate Solubility): 19.2 µg/mL
- solubility ([2]; ethyl acetate, 40 °C, organic solvent or mixture, thermodynamic from solid, Ethyl acetate, read-out: Approximate Solubility): 444 µg/mL
- solubility ([2]; ethyl formate, 40 °C, organic solvent or mixture, thermodynamic from solid, Ethyl formate, read-out: Approximate Solubility): 1010 µg/mL
- solubility ([2]; heptane, 40 °C, organic solvent or mixture, thermodynamic from solid, Heptane, read-out: Approximate Solubility): 1.7 µg/mL
- solubility ([2]; isopropyl acetate, organic solvent or mixture, thermodynamic from solid, Isopropyl acetate, read-out: Approximate Solubility): 174 µg/mL
- solubility ([2]; methanol, organic solvent or mixture, thermodynamic from solid, Methanol, read-out: Approximate Solubility): 437 µg/mL
- solubility ([2]; methylisobutyl ketone, organic solvent or mixture, thermodynamic from solid, Methylisobutyl ketone, read-out: Approximate Solubility): 530 µg/mL
- solubility ([2]; organic solvent or mixture, thermodynamic from solid, remaining 25 solvent systems tested, read-out: solubility): < 5000 µg/mL
- XRPD ([2]; 1,4-Dioxane): A
- XRPD ([2]; 1-Butanol): P1
- XRPD ([2]; 1-Propanol): P1
- XRPD ([2]; 2-Butanone (MEK)): P1
- XRPD ([2]; 2-Ethoxyethanol): P1
- XRPD ([2]; 3-Methyl-1-butanol): A
- XRPD ([2]; Acetone): P1
- XRPD ([2]; Acetonitrile:Water (75:25% v/v)): A
- XRPD ([2]; Butyl acetate): P1
- XRPD ([2]; Dichloromethane): A
- XRPD ([2]; Dichloromethane:Methanol (50:50% v/v)): A
- XRPD ([2]; Dichloromethane:Methanol (75:25% v/v)): A
- XRPD ([2]; Ethanol): P1
- XRPD ([2]; Ethyl acetate): P1
- XRPD ([2]; Heptane): A
- XRPD ([2]; Toluene): A
- XRPD ([2]; Water): A
- XRPD ([2]; tert-Butylmethyl ether): A
- solubility ([2]; tert-Butylmethyl ether, organic solvent or mixture, thermodynamic from solid, tert-Butylmethyl ether, read-out: Approximate Solubility): 108 µg/mL
- solubility ([2]; tetrahydrofuran, organic solvent or mixture, thermodynamic from solid, Tetrahydrofuran, read-out: Approximate Solubility): 50000 µg/mL
- solubility ([2]; tetrahydrofuran:water (98:2% v/v), organic solvent or mixture, thermodynamic from solid, Tetrahydrofuran:Water (98:2% v/v), read-out: Approximate Solubility): 50000 µg/mL
- solubility ([2]; tetrahydrofuran:water (98:2% v/v), organic solvent or mixture, thermodynamic from solid, Tetrahydrofuran:Water (98:2% v/v), read-out: Approximate solubility): ~50000 µg/mL
- solubility ([2]; toluene, organic solvent or mixture, thermodynamic from solid, Toluene, read-out: Approximate Solubility): 29.8 µg/mL
- solubility ([2]; water, thermodynamic from solid, Water, read-out: Approximate Solubility): 0.5 µg/mL
